Several values for one entry are separate records, joined by “and”; a condition that tells them apart may be missing. Identical values can stand only once. Inconclusive results and toxic doses are left out.

In this experiment the test system is L1210 leukemia ip in BDF1 mice, survival T/C. Briefly: NCI In Vivo Anticancer Drug Screen. Data for tumor model L1210 Leukemia (intraperitoneal) in B6D2F1 (BDF1) mice. The note with it: endpoint: mean survival time, higher = longer survival. In a few lines: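 In this screen, tumor-bearing mice given compound are compared to those given vehicle, and their survival values are reported as a treated-to-control quotient.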

Where [1] appears, read: dose: 12.5 mg/kg/injection, schedule: Q01DX009 (ip), vehicle: Klucel (hydroxypropylcellulose) (HPC).
Where [2] appears, read: dose: 25.0 mg/kg/injection, schedule: Q01DX009 (ip), vehicle: Klucel (hydroxypropylcellulose) (HPC).
Where [3] appears, read: dose: 50.0 mg/kg/injection, schedule: Q01DX009 (ip), vehicle: Klucel (hydroxypropylcellulose) (HPC).
[4] abbreviates: dose: 100.0 mg/kg/injection, schedule: Q01DX009 (ip), vehicle: Klucel (hydroxypropylcellulose) (HPC).
[5] abbreviates: dose: 100.0 mg/kg/injection, schedule: Q04DX003 (ip), vehicle: Klucel (hydroxypropylcellulose) (HPC).
[6] abbreviates: dose: 200.0 mg/kg/injection, schedule: Q04DX003 (ip), vehicle: Klucel (hydroxypropylcellulose) (HPC).
[7] abbreviates: dose: 400.0 mg/kg/injection, schedule: Q04DX003 (ip), vehicle: Klucel (hydroxypropylcellulose) (HPC).
[8] abbreviates: dose: 100.0 mg/kg/injection, schedule: Q01DX001 (ip), vehicle: saline.
Setting [9] is: dose: 200.0 mg/kg/injection, schedule: Q01DX001 (ip), vehicle: saline.
Setting [10] is: dose: 400.0 mg/kg/injection, schedule: Q01DX001 (ip), vehicle: saline.
The mark [11] stands for this setting: dose: 100.0 mg/kg/injection, schedule: Q01DX009 (ip), vehicle: saline.

As for `CC(C)=CCC/C(C)=C/CC(N)Cc1ccccc1` (stereo unspecified), the T/C is, setting by setting: under setting [1], 94 % of control; under setting [2], 97 % of control; under setting [3], 92 % of control.

On to `C=CCN(CC#N)CC#N`, for which the T/C is, setting by setting: (dose: 5.0 mg/kg/injection, schedule: Q04DX003 (ip), vehicle: Klucel (hydroxypropylcellulose) (HPC)) 98 % of control; (dose: 10.0 mg/kg/injection, schedule: Q04DX003 (ip), vehicle: Klucel (hydroxypropylcellulose) (HPC)) 100 % of control (2×) and 86 % of control.

Take `Nc1c(Cl)cc(C(=O)NC2CC2)cc1Cl`: the T/C (dose: 6.25 mg/kg/injection, schedule: Q01DX009 (ip), vehicle: Klucel (hydroxypropylcellulose) (HPC)) was 103 % of control; the T/C under setting [1] is 94 % of control; the T/C under setting [2] was 92 % of control; the T/C (dose: 25.0 mg/kg/injection, schedule: Q04DX003 (ip), vehicle: Klucel (hydroxypropylcellulose) (HPC)) was 104 % of control; the T/C under setting [3] is 97 % of control; the T/C (dose: 50.0 mg/kg/injection, schedule: Q04DX003 (ip), vehicle: Klucel (hydroxypropylcellulose) (HPC)) was 98 % of control. Also, the T/C under setting [4] is 100 % of control and the T/C under setting [5] was 104 % of control.

`CCN(CC)C(=O)C1C2CCC(C2)C1C(=O)N(CC)CC` (stereo unspecified): the T/C is, setting by setting: (dose: 100.0 mg/kg/injection, schedule: Q04DX003 (ip), vehicle: saline) 100 % of control; (dose: 200.0 mg/kg/injection, schedule: Q04DX003 (ip), vehicle: saline) 100 % of control; (dose: 400.0 mg/kg/injection, schedule: Q04DX003 (ip), vehicle: saline) 100 % of control.

For the compound `CCCCCCCC(=O)C(C)C`, the T/C reads like this: under setting [4], 95 % of control; under setting [5], 99 % of control; (dose: 200.0 mg/kg/injection, schedule: Q01DX009 (ip), vehicle: Klucel (hydroxypropylcellulose) (HPC)) 98 % of control; under setting [6], 100 % of control; (dose: 400.0 mg/kg/injection, schedule: Q01DX009 (ip), vehicle: Klucel (hydroxypropylcellulose) (HPC)) 102 % of control; under setting [7], 91 % of control.

As to `CC(=O)Nc1c(Cl)cc2c(c1Cl)C(=O)c1ccccc1-2`, the T/C under setting [5] is 105 % of control, the T/C under setting [6] was 100 % of control and the T/C under setting [7] is 103 % of control.

Regarding `CC(C)(C)OC(=O)CC#N`, the T/C (dose: 75.0 mg/kg/injection, schedule: Q04DX003 (ip), vehicle: saline) was 97 % of control; the T/C under setting [8] was 97 % of control; the T/C (dose: 150.0 mg/kg/injection, schedule: Q04DX003 (ip), vehicle: saline) was 94 % of control; the T/C under setting [9] was 101 % of control; the T/C (dose: 300.0 mg/kg/injection, schedule: Q04DX003 (ip), vehicle: saline) is 100 % of control.

As to `C#CC(O)(c1ccccc1)c1ccccc1`, the T/C reads like this: under setting [8], 103 % of control; under setting [9], 107 % of control; under setting [10], 100 % of control.

For the compound `CCOC(=O)/C(C#N)=C(/C)C(C)C(=O)OCC` (stereo unspecified), the T/C under setting [8] was 100 % of control, the T/C under setting [11] was 102 % of control, the T/C under setting [9] was 100 % of control and the T/C under setting [10] was 96 % of control.

On to `CCCC(CC)C(C(=O)OCC)C1=NC(C)(C)CC(C)O1` (stereo unspecified), for which the T/C was 98 % of control (dose: 100.0 mg/kg/injection, schedule: Q01DX009 (ip), vehicle: saline sonified); 104 % of control (dose: 200.0 mg/kg/injection, schedule: Q01DX009 (ip), vehicle: saline sonified); 93 % of control (dose: 400.0 mg/kg/injection, schedule: Q01DX009 (ip), vehicle: saline sonified).

In the case of `O=C(OC1OCC(OCc2ccccc2)C(OCc2ccccc2)C1OCc1ccccc1)c1ccccc1` (stereo unspecified), the T/C was 94 % of control (dose: 100.0 mg/kg/injection, schedule: Q04DX003 (ip), vehicle: saline with Tween-80); 94 % of control (dose: 200.0 mg/kg/injection, schedule: Q04DX003 (ip), vehicle: saline with Tween-80); 91 % of control (dose: 400.0 mg/kg/injection, schedule: Q04DX003 (ip), vehicle: saline with Tween-80).

With `C/C(=N/N(C)C)c1ccc([N+](=O)[O-])cc1`, the T/C was 113 % of control under setting [11] and 89 % of control (dose: 200.0 mg/kg/injection, schedule: Q01DX009 (ip), vehicle: saline).

In the case of `CC(C)COC(=O)Nc1cccc(O)c1`, the T/C is 91 % of control (dose: 100.0 mg/kg/injection, schedule: Q01DX009 (ip), vehicle: saline with Tween-80); 90 % of control (dose: 200.0 mg/kg/injection, schedule: Q01DX009 (ip), vehicle: saline with Tween-80); 94 % of control (dose: 400.0 mg/kg/injection, schedule: Q01DX009 (ip), vehicle: saline with Tween-80).

As to `Cc1ccc([P+](Cc2ccccc2)(c2ccc(C)cc2)c2ccc(C)cc2)cc1`, the T/C is, setting by setting: (dose: 75.0 mg/kg/injection, schedule: Q01DX001 (ip), vehicle: saline) 97 % of control; (dose: 150.0 mg/kg/injection, schedule: Q01DX001 (ip), vehicle: saline) 97 % of control.

In the case of `COCCOCCN1CCN(CCCN2c3ccccc3Sc3ccc(C(F)(F)F)cc32)CC1`, the T/C was 115 % of control (dose: 4.37 mg/kg/injection, schedule: Q04DX003 (ip), vehicle: saline); 107 % of control (dose: 6.25 mg/kg/injection, schedule: Q04DX003 (ip), vehicle: saline); 121 % of control (dose: 8.75 mg/kg/injection, schedule: Q04DX003 (ip), vehicle: saline); 110 % of control (dose: 12.5 mg/kg/injection, schedule: Q04DX003 (ip), vehicle: saline); 86 % of control (dose: 17.5 mg/kg/injection, schedule: Q04DX003 (ip), vehicle: saline); 151 % of control (dose: 50.0 mg/kg/injection, schedule: Q04DX003 (ip), vehicle: saline).

As to `CCCCc1ccc(C2=CC(=O)C(c3ccc(CCCC)cc3)=CC2=O)cc1`, the T/C reads like this: under setting [8], 98 % of control; under setting [9], 95 % of control; under setting [10], 97 % of control.

As for `CC12CCC(C1)C(C)(C)/C2=N\N=C(N)N` (stereo unspecified), the T/C (dose: 15.0 mg/kg/injection, schedule: Q01DX Z (ip), vehicle: saline) was 93 % of control; the T/C (dose: 30.0 mg/kg/injection, schedule: Q01DX Z (ip), vehicle: saline) is 103 % of control; the T/C (dose: 60.0 mg/kg/injection, schedule: Q01DX Z (ip), vehicle: saline) was 93 % of control; the T/C (dose: 120.0 mg/kg/injection, schedule: Q01DX Z (ip), vehicle: saline) was 97 % of control; the T/C (dose: 188.0 mg/kg/injection, schedule: Q01DX Z (oral), vehicle: saline) was 103 % of control; the T/C (dose: 375.0 mg/kg/injection, schedule: Q01DX Z (oral), vehicle: saline) is 105 % of control. Moreover, where the note is “dose: 750.0 mg/kg/injection, schedule: Q01DX Z (oral), vehicle: saline”, the T/C was 91 % of control.

With `CCCCCCCCCCC(=O)N(CCC)CCC`, the T/C was 97 % of control (dose: 100.0 mg/kg/injection, schedule: Q01DX009 (ip), vehicle: carboxymethylcellulose (CMC)); 91 % of control (dose: 100.0 mg/kg/injection, schedule: Q04DX002 (ip), vehicle: carboxymethylcellulose (CMC)); 93 % of control and 92 % of control (dose: 200.0 mg/kg/injection, schedule: Q01DX009 (ip), vehicle: carboxymethylcellulose (CMC)); 93 % of control (dose: 200.0 mg/kg/injection, schedule: Q04DX002 (ip), vehicle: carboxymethylcellulose (CMC)); 86 % of control (dose: 400.0 mg/kg/injection, schedule: Q01DX009 (ip), vehicle: carboxymethylcellulose (CMC)); 88 % of control (dose: 400.0 mg/kg/injection, schedule: Q04DX002 (ip), vehicle: carboxymethylcellulose (CMC)).

On to `CCNC(=O)c1cc(NC(=O)Nc2ccc(C3=NCCN3)cc2)cc(NC(=O)Nc2ccc(C3=NCCN3)cc2)c1`, for which the T/C reads like this: (dose: 62.0 mg/kg/injection, schedule: Q01DX Z (ip), vehicle: carboxymethylcellulose (CMC)) 102 % of control; (dose: 125.0 mg/kg/injection, schedule: Q01DX Z (ip), vehicle: carboxymethylcellulose (CMC)) 103 % of control; (dose: 250.0 mg/kg/injection, schedule: Q01DX Z (ip), vehicle: carboxymethylcellulose (CMC)) 107 % of control; (dose: 500.0 mg/kg/injection, schedule: Q01DX Z (ip), vehicle: carboxymethylcellulose (CMC)) 102 % of control.
